Data published in the NIST ThermoML archive (doi:10.1021/acs.jced.6b00121).

Experiment: xn = mol fraction of the nth substance listed
Details: 100 kPa, Liquid; for viscosity: Falling or rolling sphere viscometry; for mass density: Vibrating tube method

CCCCCCCCCCC [undecane] + CCCCO
Details	mass density [kg/m3]	viscosity [mPa·s]
283.15 K, x1 = 0.1007	801.8	3.124
283.15 K, x1 = 0.2004	790.28	2.611
283.15 K, x1 = 0.299	781.12	2.24
283.15 K, x1 = 0.3981	773.6	1.939
283.15 K, x1 = 0.5006	767.02	1.722
283.15 K, x1 = 0.5964	761.98	1.582
283.15 K, x1 = 0.6982	757.32	1.471
283.15 K, x1 = 0.7979	753.51	1.416
283.15 K, x1 = 0.9	750.22	1.385
283.15 K, x1 = 1	747.78	1.371
288.15 K, x1 = 0.1007	798.03	2.731
288.15 K, x1 = 0.2004	786.48	2.294
288.15 K, x1 = 0.299	777.31	1.978
288.15 K, x1 = 0.3981	769.79	1.723
288.15 K, x1 = 0.5006	763.23	1.541
288.15 K, x1 = 0.5964	758.18	1.425
288.15 K, x1 = 0.6982	753.56	1.329
288.15 K, x1 = 0.7979	749.76	1.287
288.15 K, x1 = 0.9	746.49	1.26
288.15 K, x1 = 1	744.06	1.249
293.15 K, x1 = 0.1007	794.24	2.398
293.15 K, x1 = 0.2004	782.67	2.025
293.15 K, x1 = 0.299	773.49	1.755
293.15 K, x1 = 0.3981	765.96	1.54
293.15 K, x1 = 0.5006	759.41	1.387
293.15 K, x1 = 0.5964	754.38	1.29
293.15 K, x1 = 0.6982	749.77	1.212
293.15 K, x1 = 0.7979	746	1.176
293.15 K, x1 = 0.9	742.75	1.152
293.15 K, x1 = 1	740.35	1.145
298.15 K, x1 = 0.1007	790.42	2.115
298.15 K, x1 = 0.2004	778.83	1.795
298.15 K, x1 = 0.299	769.63	1.564
298.15 K, x1 = 0.3981	762.11	1.383
298.15 K, x1 = 0.5006	755.57	1.254
298.15 K, x1 = 0.5964	750.55	1.173
298.15 K, x1 = 0.6982	745.97	1.108
298.15 K, x1 = 0.7979	742.22	1.077
298.15 K, x1 = 0.9	739	1.058
298.15 K, x1 = 1	736.64	1.062
303.15 K, x1 = 0.1007	786.57	1.871
303.15 K, x1 = 0.2004	774.95	1.595
303.15 K, x1 = 0.299	765.75	1.392
303.15 K, x1 = 0.3981	758.22	1.248
303.15 K, x1 = 0.5006	751.7	1.139
303.15 K, x1 = 0.5964	746.69	1.071
303.15 K, x1 = 0.6982	742.14	1.016
303.15 K, x1 = 0.7979	738.42	0.991
303.15 K, x1 = 0.9	735.23	0.975
303.15 K, x1 = 1	732.93	0.982
308.15 K, x1 = 0.1007	782.69	1.663
308.15 K, x1 = 0.2004	771.05	1.426
308.15 K, x1 = 0.299	761.84	1.253
308.15 K, x1 = 0.3981	754.31	1.13
308.15 K, x1 = 0.5006	747.8	1.038
308.15 K, x1 = 0.5964	742.82	0.979
308.15 K, x1 = 0.6982	738.3	0.936
308.15 K, x1 = 0.7979	734.6	0.915
308.15 K, x1 = 0.9	731.45	0.902
308.15 K, x1 = 1	729.23	0.91
313.15 K, x1 = 0.1007	778.77	1.483
313.15 K, x1 = 0.2004	767.1	1.279
313.15 K, x1 = 0.299	757.88	1.131
313.15 K, x1 = 0.3981	750.36	1.028
313.15 K, x1 = 0.5006	743.87	0.95
313.15 K, x1 = 0.5964	738.91	0.901
313.15 K, x1 = 0.6982	734.42	0.864
313.15 K, x1 = 0.7979	730.76	0.847
313.15 K, x1 = 0.9	727.65	0.837
313.15 K, x1 = 1	725.53	0.847
318.15 K, x1 = 0.1007	774.8	1.326
318.15 K, x1 = 0.2004	763.11	1.152
318.15 K, x1 = 0.299	753.88	1.026
318.15 K, x1 = 0.3981	746.37	0.938
318.15 K, x1 = 0.5006	739.91	0.882
318.15 K, x1 = 0.5964	734.97	0.832
318.15 K, x1 = 0.6982	730.51	0.801
318.15 K, x1 = 0.7979	726.89	0.787
318.15 K, x1 = 0.9	723.83	0.779
318.15 K, x1 = 1	721.82	0.79
323.15 K, x1 = 0.1007	770.78	1.192
323.15 K, x1 = 0.2004	759.07	1.042
323.15 K, x1 = 0.299	749.84	0.934
323.15 K, x1 = 0.3981	742.34	0.858
323.15 K, x1 = 0.5006	735.91	0.804
323.15 K, x1 = 0.5964	731	0.771
323.15 K, x1 = 0.6982	726.58	0.749
323.15 K, x1 = 0.7979	722.99	0.733
323.15 K, x1 = 0.9	719.99	0.727
323.15 K, x1 = 1	718.11	0.74
328.15 K, x1 = 0.1007	766.71	1.074
328.15 K, x1 = 0.2004	754.97	0.945
328.15 K, x1 = 0.299	745.75	0.853
328.15 K, x1 = 0.3981	738.26	0.79
328.15 K, x1 = 0.5006	731.86	0.744
328.15 K, x1 = 0.5964	726.99	0.716
328.15 K, x1 = 0.6982	722.61	0.693
328.15 K, x1 = 0.7979	719.07	0.685
328.15 K, x1 = 0.9	716.13	0.68
328.15 K, x1 = 1	714.39	0.692
333.15 K, x1 = 0.1007	762.58	0.974
333.15 K, x1 = 0.2004	750.83	0.86
333.15 K, x1 = 0.299	741.61	0.782
333.15 K, x1 = 0.3981	734.14	0.729
333.15 K, x1 = 0.5006	727.78	0.69
333.15 K, x1 = 0.5964	722.94	0.667
333.15 K, x1 = 0.6982	718.61	0.647
333.15 K, x1 = 0.7979	715.12	0.641
333.15 K, x1 = 0.9	712.24	0.638
333.15 K, x1 = 1	710.68	0.651
338.15 K, x1 = 0.1007	758.39	0.882
338.15 K, x1 = 0.2004	746.61	0.785
338.15 K, x1 = 0.299	737.42	0.719
338.15 K, x1 = 0.3981	729.97	0.675
338.15 K, x1 = 0.5006	723.65	0.641
338.15 K, x1 = 0.5964	718.86	0.622
338.15 K, x1 = 0.6982	714.57	0.606
338.15 K, x1 = 0.7979	711.13	0.602
338.15 K, x1 = 0.9	708.34	0.601
338.15 K, x1 = 1	706.95	0.615
343.15 K, x1 = 0.1007	754.12	0.802
343.15 K, x1 = 0.2004	742.34	0.72
343.15 K, x1 = 0.299	733.15	0.663
343.15 K, x1 = 0.3981	725.75	0.626
343.15 K, x1 = 0.5006	719.48	0.598
343.15 K, x1 = 0.5964	714.72	0.582
343.15 K, x1 = 0.6982	710.49	0.569
343.15 K, x1 = 0.7979	707.12	0.566
343.15 K, x1 = 0.9	704.41	0.567
343.15 K, x1 = 1	703.22	0.58
348.15 K, x1 = 0.1007	749.78	0.732
348.15 K, x1 = 0.2004	738.01	0.662
348.15 K, x1 = 0.299	728.84	0.614
348.15 K, x1 = 0.3981	721.47	0.583
348.15 K, x1 = 0.5006	715.24	0.56
348.15 K, x1 = 0.5964	710.54	0.546
348.15 K, x1 = 0.6982	706.38	0.535
348.15 K, x1 = 0.7979	703.07	0.534
348.15 K, x1 = 0.9	700.47	0.536
348.15 K, x1 = 1	699.47	0.549
353.15 K, x1 = 0.1007	745.37	0.671
353.15 K, x1 = 0.2004	733.6	0.611
353.15 K, x1 = 0.299	724.46	0.57
353.15 K, x1 = 0.3981	717.14	0.544
353.15 K, x1 = 0.5006	710.97	0.525
353.15 K, x1 = 0.5964	706.32	0.514
353.15 K, x1 = 0.6982	702.22	0.506
353.15 K, x1 = 0.7979	698.99	0.505
353.15 K, x1 = 0.9	696.51	0.508
353.15 K, x1 = 1	695.72	0.522
358.15 K, x1 = 0.1007	740.87	0.617
358.15 K, x1 = 0.2004	729.1	0.565
358.15 K, x1 = 0.299	720.01	0.531
358.15 K, x1 = 0.3981	712.73	0.51
358.15 K, x1 = 0.5006	706.63	0.493
358.15 K, x1 = 0.5964	702.04	0.485
358.15 K, x1 = 0.6982	698.02	0.477
358.15 K, x1 = 0.7979	694.88	0.479
358.15 K, x1 = 0.9	692.52	0.483
358.15 K, x1 = 1	691.96	0.497
363.15 K, x1 = 0.1007	736.28	0.569
363.15 K, x1 = 0.2004	724.55	0.525
363.15 K, x1 = 0.299	715.49	0.497
363.15 K, x1 = 0.3981	708.28	0.479
363.15 K, x1 = 0.5006	702.24	0.465
363.15 K, x1 = 0.5964	697.72	0.458
363.15 K, x1 = 0.6982	693.78	0.452
363.15 K, x1 = 0.7979	690.73	0.455
363.15 K, x1 = 0.9	688.52	0.46
363.15 K, x1 = 1	688.18	0.475
